Assay results from patent publication US6001880A, “Alkylenediamine derivative, anti-ulcer drug, and antibacterial drug” (Shiseido Co., Ltd., priority 1997, dated 1999).

How the values were obtained:
[1] = system: stress ulcer formation in rats; experiment: WIS: Restraint and Water Immersion Stress-Induced Ulcer Inhibition Test; assay type: in vivo, rat (male Crj:SD or Slc:SD); details: 100 mg/kg oral, 10 minutes before 7 h restraint and water immersion (21° C.)
Experimental: WIS: Restraint and Water Immersion Stress-Induced Ulcer Inhibition Test
The degree of inhibition of the stress ulcer formation is tested.
Male Crj:SD or Slc:SD rats (6 to 7-week-old) were fasted overnight, but allowed free access to water. Each group has 5 to 8 of these rats. The sample compound was dissolved or suspended in an aqueous solution of 0.3% sodium carboxymethylcellulose or 0.05% Tween 80 and then was orally administered (100 mg/10 ml/kg). To a control group, the vehicle was administered. 10 minutes later, the rats were placed in a stress cage and immersed to the level of xipfoid process in a water bath (21° C.) for 7 hours. At the end of the stress, the rats were sacrificed by inhalation of ether or carbon dioxide. Then, the stomach of each was removed, inflated by injecting 10 ml of 5% formalin neutral buffer solution, and immersed in 1% formalin neutral buffer solution for 30 minutes or more to be fixed. The stomach was incised along the greater curvature and then the length of each erosion in the glandular portion was determined under dissecting microscope. The sum of the length of erosions per stomach was defined as ulcer index (UI).
The effect obtained when 100 mg/kg of the sample compound had been administered was expressed as ulcer formation inhibitory rate (%) as follows:
ulcer formation inhibitory rate (%)=(1-(UI in sample group/UI in control

[2] = system: isolated gastric fundic gland; experiment: CAP: Acid Secretion Inhibition Test In Vitro ([14C]-aminopyrine uptake); assay type: cell-based, rabbit (male Japanese White); details: Oryctolagus cuniculus; final concentration 10^-5 M; histamine 10^-5 M stimulation; read-out: CAP: acid secretion inhibitory rate
Experimental: CAP: Acid Secretion Inhibition Test In Vitro
The acid secretion inhibitory activity in a cell level is studied. It can also be used for studying the mechanism of the effect.
First, an isolated gastric fundic gland sample was prepared. Namely, a male Japanese White rabbit (2.5 to 3 kg) was anesthetized to death with Nembutal™ and then the abdomen was incised. Immediately thereafter, the stomach was removed and, after its pyloric and cardiac antrum were severed, incised along its greater curvature into two sheets. The gastric contents adhering to the mucosal surface was washed out with ice-cooled PBS (-) and then carefully washed therein. The gastric wall was spread on a cork board with its mucosal surface facing up and the feed and mucus thereon were completely removed with sterile gauze. The mucosa was separated therefrom by a spatula and then collected in ice-cooled PBS (-). After being washed twice with PBS (-), the mucosa was minced into 2-3 mm^3 pieces by scissors. These pieces were further washed twice with a nutrient solution. The nutrient solution comprises 132.4 mM of NaCl, 5.4 mM of KCl, 5 mM of Na2 HPO4. 12H2 O, 1 mM of NaH2 PO4.2H2 O, 1.2 mM of MgSO4, 1 mM of CaCl2, 25 mM of HEPES, 2 mg/ml of glucose, and 1 mg/ml of BSA.
Into 70 ml of the nutrient solution containing 1 mg/ml of collagenase, minced mucosal pieces were dispersed and intensely stirred in a conical flask with a stirrer at 37° C. for 40 to 60 minutes. During this period, 100% O2 was sprayed on the nutrient solution surface and the pH was appropriately measured such that it was immediately adjusted to pH 7.4, when the value was therebelow, with a base. The nutrient solution was added to the reaction solution so as to attain the total amount of about 200 ml. After being filtered through a mesh, the suspension was divisionally introduced into 50 ml centrifuge tubes and left for 15 minutes such that gastric fundic gland was deposited. The supernatant was repeatedly removed by an aspirator, dispersed in the nutrient solution, and then left such that the gastric fundic gland was washed three times. At this time, without using a pipette, the suspension was alternately introduced into two centrifuge tubes so as to effect dispersion. The number of cells was counted under microscope and adjusted to 1.6×10^6 cells/ml.
Then, [^14 C]-aminopyrine uptake test was performed. After an Eppendorf tube was weighed, 10 μl (final concentration: 10^-5 M) of histamine dissolved in the above-mentioned nutrient solution, 10 μl (final concentration: […]) of the test compound dissolved in DMSO, and 10 μl (final concentration: 0.05 μCi/ml) of [^14 C]-aminopyrine diluted with the nutrient solution were introduced therein and then 970 μl of the isolated gastric fundic gland suspension prepared above was added thereto. Subsequently, this mixture was shaken at 37° C. for 40 minutes at 125 cycles/minute. After being centrifuged for 30 seconds, 200 μl of its supernatant was collected into a mini-vial, while the rest was removed by an aspirator. The gland pellet was completely dried as the tube with its lid being opened was kept for one night in a drying oven at 80° C. and then the lid was closed and the weight was determined at room temperature. Then 100 μl of 1N KOH was added thereto and the tube with its lid being closed was treated at 60° C. for 1 to 2 hours so as to dissolve the pellet. Then, the contents thereof were transferred to a mini-vial. Into the mini-vial containing the supernatant or gland pellet, 4 ml of Atomlite™ was added and then the radioactivity was measured by a liquid scintillation counter. Here, after the radioactivity of the gland pellet was corrected by using a sample in which 20 mM of NaSCN was added so as to cancel the hydrogen ion concentration gradient, the integration ratio of aminopyrine specifically trapped by the gland pellet was calculated. This experiment was performed in duplicate.
Here, its principle will be briefly explained. […]

[3] = MTT: Cell Damaging and Protecting Effect Test; assay type: cell-based, rabbit (male Japanese White); details: rabbit, gastric corpus mucosa cells, final concentration 10^-4 M, smaller value is better, read-out: MTT: cell damaging rate
Description: MTT: Cell Damaging and Protecting Effect Test
It is confirmed that there is no toxicity in cell level. Those having a toxicity in cell level are inappropriate as an anti-ulcer drug.
A male Japanese White rabbit (2.5 to 3 kg) was anesthetized to death by Nembutal™ and, immediately thereafter, its stomach was removed. The greater curvature of the stomach was incised so as to remove the stomach contents therefrom. After the mucosal surface was washed with HBSS (Hanks' Balanced Salt Solution), the stomach in ice-cooled HBSS was transferred to a laboratory. Then, after the pyloric antrum was removed, the gastric corpus mucosa was separated by a spatula and then minced into 2 to 3 mm^3 pieces in BME (Basal Medium Eagle). Thereafter, these pieces were shaken at 120 to 130 cycles/minute for 15 minutes at 37° C. in BME 60 ml containing 280 U/ml of dispase and 30 to 50 U/ml of collagenase. Here, the concentration of collagenase was appropriately changed for each lot in view of the state of cells. The pieces were washed twice with EBSS (Earle's Balanced Salt Solution) containing 1 mM of EDTA and then shaken in MEM (Minimum Essential Medium) containing 1 mM of EDTA at 37° C. for 5 minutes. Subsequently, they were shaken in the dispase and collagenase having the same concentrations as those mentioned above for 15 minutes so as to remove the supernatant and then further shaken at 37° C. for 50 to 60 minutes at 120 to 130 cycles/minute. Then, after being washed twice with HBSS, Ham F12 containing 2% of Ultrocer G™ was used to attain the concentration of 1×10^6 cells/ml. Thus formed suspension was dispensed in each well of a 96-well plate by 200 μl. The plate was incubated in the atmosphere composed of 5% CO2 and 95% air at 37° C. for three days so as to attain a confluent state and then subjected to MTT assay.
The sample compound was dissolved in DMSO so as to attain a concentration of 10^-2 M and then diluted with HBSS containing 2% of Ultrocer G™ so as to attain a final concentration of 10^-4 M. To each group, which 8 wells were used for, 10 μl of MTT reagent was added immediately after 100 μl of the medium in each well was exchanged for same volume of the resulting solution of the sample compound. After being incubated in an atmosphere composed of 5% CO2 and 95% air at 37° C. for 4 hours, thus formed solution was centrifuged and then its supernatant was discarded. Subsequently, 100 μl of 100% ethanol was added to the residue so as to dissolve MTT formazan. Then, the absorbance (OD: 570 to 630) was measured by a microplate reader. This method utilizes a phenomenon in which MTT is changed to MTT formazan only by mitochondria of living cells so as to change color.
The cell damaging or cell protecting effect of the sample compound at the final concentration of 10^-4 M was expressed as cell damaging rate (%) as follows:
cell damaging rate (%)=(1-(absorbance in sample group/absorbance in control
Accordingly, the smaller value is better in the cell damaging rate.

Structure (SMILES) | WIS: ulcer formation inhibitory rate [1] [%] | inhibition at 10 µM [2] [%] | cytotoxicity at 4 h, 100 µM [3] [%]
CCN(CC)CCNC(=O)c1ccccc1OC/C=C(\C)CCC=C(C)C [Example 2] | 82 | 99.9 | 28
CCN(CC)CCNC(=O)c1ccc(OCC=C(C)C)cc1 [Example 3] | 88 | 70.8 | 1
CCN(CC)CCNC(=O)c1ccc(OC/C=C(/C)CCC=C(C)C)cc1 [Example 5] | 90 | 109 | 30
CCC(C)N(CCNC(=O)c1ccc(OC/C=C(\C)CCC=C(C)C)cc1)C(C)CC (centres unmarked) [Example 8] | 58 | 99.9 | 38
CC(C)=CCC/C(C)=C/COc1ccccc1C(=O)NCCN(C)C [Example 13] | 75 | 96.6 | 19
CCN(CC)CCNC(=O)c1ccc(OC/C=C(\C)CCC=C(C)C)cc1OC/C=C(\C)CCC=C(C)C [Example 15] | 92 | 96.5 | 44
CCN(CC)CCNC(=O)c1ccc(OCC=C(C)C)cc1OCC=C(C)C [Example 20] | 67 | 100 | 28
CCN(CC)CCNC(=O)c1cc(OCC=C(C)C)ccc1OCC=C(C)C [Example 21] | 77 | 100 | 36
CCN(CC)CCNC(=O)c1ccc(OCC=C(C)C)c(OCC=C(C)C)c1 [Example 22] | 81 | 99.8 | 16
CCN(CC)CCNC(=O)c1ccccc1SC/C=C(\C)CCC=C(C)C [Example 25] | 82 | 96.1 | 19
CC(C)=CCC/C(C)=C/CN(C/C=C(\C)CCC=C(C)C)c1ccc(C(=O)NCCN(C(C)C)C(C)C)cc1 [Example 27] | 45 | 38.5 | 39
CCN(CC)CCNC(=O)c1ccc(OC)c(OC/C=C(\C)CCC=C(C)C)c1 [Example 29] | 81 | 100 | 49
CCN(CC)CCNC(=O)c1cccc(OC)c1OC/C=C(\C)CCC=C(C)C [Example 31] | 73 | 100 | 17
CCN(CC)CCNC(=O)c1ccc(OC)cc1OC/C=C(\C)CCC=C(C)C [Example 32] | 73 | 100 | 28
CCN(CC)CCNC(=O)c1cc(OC)ccc1OC/C=C(\C)CCC=C(C)C [Example 33] | 67 | 100 | 26
CCN(CC)CCNC(=O)c1cc(F)ccc1OC/C=C(\C)CCC=C(C)C [Example 35] | 81 | 105 | 25
CCN(CC)CCNC(=O)c1ccc(OC/C=C(\C)CCC=C(C)C)nc1 [Example 50] | 42 | 95.2 | 4
CC(C)=CCC/C(C)=C/COc1ccc(C(=O)NCCN(C(C)C)C(C)C)cn1 [Example 51] | 72 | 94.7 | 15
CCN(CC)CCNC(=O)c1ccc(CC(C)C)c(O)c1 [Example 56] | 69 | 53.4 | 11
CC(C)Cc1cc(C(=O)NCCN(C(C)C)C(C)C)ccc1OCc1ccc(F)cc1 [Example 57] | 45 | 100 | 43
CC(C)N(CCNC(=O)c1ccc(NC(C)(C)C)cc1)C(C)C [Example 68] | 79 | – | -58
